# Reference: patent US4163799A, “Psychostimulant compounds” (Union Chimique Continentale U.C.C., priority 1975, dated 1979)
# Structures can show the parent of a compound that is named as a salt.
# Assays:
# [1] = Observation of animals, rat; type: in vivo, rat (male, Wistar AF)
# Experimental: (§1) All the experiments described below were carried out on male rats weighing between 170 and 220 g (Wistar AF strain) and male mice weighing between 18 and 23 g (Swiss NMRI strain), unless indicated to the contrary. All the experiments were conducted in a constant-temperature laboratory (22±1° C.). […] Unless indicated to the contrary 10 animals per batch were always used.
# [2] = Conditioned-inhibition test (four-plate test); type: in vivo, mouse (male, Swiss NMRI); conditions: 4, 8, 16, 32 and 64 mg/kg
# Experimental: as §1
# A simple conditioned-inhibition test was used, namely the four-plate test (Neuropharmacology, Aron et al, 1971, 10, 459-470).
# [3] = Determination of acute toxicity in the mouse (LD50, Behrens and Karber method); set-up: species or system mouse (male, Swiss NMRI); conditions: in vivo
# Experimental: as §1
# [4] = Antireserpine activity test, rat; type: in vivo, rat (male, Wistar AF); conditions: 8, 16, 32 mg/kg orally, reserpine 2.5 mg/kg IP 4 hours before
# Experimental: as §1
# [5] = Stereotypy test with amphetamine; type: in vivo, rat (male, Wistar AF); conditions: 32 or 64 mg/kg orally 60 minutes before amphetamine 2 mg/kg IP
# Experimental: as §1
# [6] = Anticataleptic activity test (prochlorperazine); type: in vivo, rat (male, Wistar AF); conditions: 8 or 32 mg/kg ip or orally; prochlorperazine 8 mg/kg ip; homolateral paws, buddha, rocking plate tests
# Experimental: as §1
# [7] = Avoidance conditioning, two-compartment shuttle-box; type: in vivo, rat (male, Wistar AF); conditions: 16 and 64 mg/kg orally, previously trained rats
# Experimental: as §1
# This avoidance conditioning in the rat placed in a two-compartment shuttle-box described by Boissier and Simon (Therapie 1968, 23, 1267-1276) was studied.
# [8] = Interaction with convulsants: cardiazol; type: in vivo; conditions: 64 mg/kg orally 30 minutes before cardiazol 160 mg/kg SC
# Experimental: as §1
# [9] = Hot plate test with the mouse; type: in vivo, mouse (male, Swiss NMRI)
# Experimental: as §1
# This test was used to measure the reaction time of the animals to a painful stimulus. Ten animals were used per point. Fifteen minutes after oral administration of NaAHDH (32 mg/kg) the reaction time (licking of front paws) of the mice exposed to the hot plate was 5.8 seconds while that of the controls was 7.3 seconds (significant difference at the 0.05 threshold).
# [10] = Modification of hypnotic effects (pentobarbital), rat; type: in vivo, rat (male, Wistar AF); conditions: 16, 32, 64 mg/kg orally, with or 60 minutes before pentobarbital
# Experimental: as §1
# [11] = Antireserpine activity test, mouse; type: in vivo, mouse (male, Swiss NMRI); conditions: 8, 16, 32 mg/kg orally, reserpine 2.5 mg/kg IP 4 hours before
# Experimental: as §1
# [12] = system: monoaminoxidase; assay: Inhibitory effect of monoaminoxidase (tryptamine test); type: in vivo, rat (male, Wistar AF); conditions: 16 and 64 mg/kg orally; tryptamine 3 mg/kg IV
# Experimental: as §1
# [13] = Interaction with convulsants: electric shock; type: in vivo, mouse (male, Swiss NMRI); conditions: 4, 16, 64 mg/kg orally 60 minutes before electric shock
# Experimental: as §1
# [14] = Observation of animals, mouse; type: in vivo, mouse (male, Swiss NMRI)
# Experimental: as §1
# [15] = Antioxotremorine activity test; type: in vivo, mouse (male, Swiss NMRI); conditions: 8, 16, 32 mg/kg orally or ip; oxotremorine 0.5 mg/kg IP
# Experimental: as §1
# In mice which received doses of 8, 16, and 32 mg/kg of NaAHDH orally or intraperitoneally the effects of oxotremorine (0.5 mg/kg IP) were unchanged, in terms of hyperthermia, trembling, lacrimation, hypersalivation, and defecation.
# [16] = Antihypnotic effect / pentobarbital antagonism (conclusion); type: in vivo
# [17] = Overall activity and wakefulness profile (conclusion of the study); type: in vivo, rat and mouse
# [18] = Motor activity in the rat (actimeter); type: in vivo, rat (male, 90-110 g)
# Experimental: as §1
# The motor activity was determined on male rats weighing between 90 and 110 g with the aid of the actimeter, the same instrument cited with regard to motor activity in the mouse.
# The NaAHDH doses were given immediately before the actimeter was switched on.
# [19] = Perforated board test; type: in vivo
# Experimental: as §1
# The technique and apparatus described by Boissier and Simon (Physiol. Behav. 1967, 2, 444-448) were used. In these experiments 15 animals per group were used (except for 30 for the controls and 30 for the 32 mg/kg dose).
# [20] = doses less than toxic, beginning with 4 mg/kg orally or ip
# [21] = doses less than toxic, from 4 mg/kg orally or ip
# [22] = doses very close to the lethal doses
# [23] = only at doses very close to the lethal doses
# [24] = 8 mg/kg orally 60 min before test
# [25] = 16 mg/kg orally 60 min before test
# [26] = 32 mg/kg orally 60 min before test
# [27] = 64 mg/kg orally 60 min before test
compound,measurement,setting,value
"CC(O)CC(c1ccccc1)C(C(=O)O)c1ccccc1 (stereo not drawn) [NaAHDH, Sodium Salt of 5-Hydroxy-2,3-Diphenyl-Hexanoic Acid]",sexual behavior,[1],increase of sexual behavior
same,"excitation, reactivity to touch and sound stimuli",[1]; [20],slight excitation was observed with enhanced reactivity to touch and sound stimuli
same,diameter of the pupil,[1]; [21],no change was observed in the diameter of the pupil
same,hyperthermia,[1]; [21],slight hyperthermia
same,"motor coordination, abnormal or stereotyped movements",[1]; [21],not accompanied by lack of motor coordination or abnormal or stereotyped movements
same,hyperthermia,[1]; [22],about 2 °C
same,toxic signs,[1]; [23],"trembling, hyperreactivity to very intense stimuli, interaggressivity, and convulsive phenomena extending to the rear paws"
same,animals' performance in four-plate test,[2],slight in increase in the animals' performance
same,modification of conditioned inhibition,[2],no modification of conditioned inhibition
same,LD50,"[3]; ip, intraperitoneally",175 mg/kg
same,LD50,"[3]; po, administered orally",998 mg/kg
same,modification of hyperthermia or drooping eyelid induced by reserpine,[4],no modification of hyperthermia or drooping eyelid induced by reserpine
same,modification of amphetamine stereotyped movements,[5],no modification in stereotyped movements
same,modification of cataleptic condition,[6],no modification to the cataleptic condition
same,change in avoidance conditioning,[7],no change in the conditioning
same,latency of convulsions,[8],no decrease in the latency of convulsions
same,effects of an analgesic dose of morphine on hot plate test,"[9]; 32 mg/kg, with morphine",did not increase or decrease the effects of an analgesic dose of morphine
same,reaction time (licking of front paws),"[9]; 15 min after 32 mg/kg orally, controls 7.3 seconds, significant at 0.05",5.8 s
same,time taken to fall asleep or length of sleep,[10],no modification to the time taken to fall asleep or the length of sleep
same,modification of hyperthermia or drooping eyelid induced by reserpine,[11],no modification of hyperthermia or drooping eyelid induced by reserpine
same,potentialization of effects of infra-convulsant dose of tryptamine,[12],no potentialization of the effects of an infra-convulsant dose of tryptamine
same,duration or appearance of the convulsions,[13],modified neither the duration nor appearance of the convulsions
same,motility after the convulsion,[13],no increase in motility after the convulsion
same,"excitation, reactivity to touch and sound stimuli",[14]; [20],slight excitation was observed with enhanced reactivity to touch and sound stimuli
same,diameter of the pupil,[14]; [21],no change was observed in the diameter of the pupil
same,hyperthermia,[14]; [21],slight hyperthermia
same,"motor coordination, abnormal or stereotyped movements",[14]; [21],not accompanied by lack of motor coordination or abnormal or stereotyped movements
same,hyperthermia,[14]; [22],about 2 °C
same,toxic signs,[14]; [23],"trembling, hyperreactivity to very intense stimuli, interaggressivity, and convulsive phenomena extending to the rear paws"
same,"effects of oxotremorine (hyperthermia, trembling, lacrimation, hypersalivation, defecation)",[15],unchanged
same,pentobarbital antagonism,[16]; at clearly stimulating doses,no pentobarbital antagonism
same,antihypnotic effect,[16]; compared with caffeine,no antihypnotic effect
same,signs of sympathetic excitation,[17]; by contrast to nooanaleptics,no signs of sympathetic excitation
same,persistence of increase in activity and wakefulness,"[17]; orally, after administration",about 2 hours
same,"number of beams interrupted, 30 + 5 min",[18]; 16 mg/kg ip,39
same,"number of beams interrupted, 30 + 10 min",[18]; 16 mg/kg ip,67
same,"number of beams interrupted, 30 + 15 min",[18]; 16 mg/kg ip,104
same,"number of beams interrupted, 30 + 20 min",[18]; 16 mg/kg ip,133
same,"number of beams interrupted, 30 + 25 min",[18]; 16 mg/kg ip,156
same,"number of beams interrupted, 30 + 30 min",[18]; 16 mg/kg ip,182 ± 39
same,"number of beams interrupted, 30 min",[18]; 16 mg/kg ip,461 ± 32
same,"number of beams interrupted, 30 + 5 min",[18]; 32 mg/kg ip,88
same,"number of beams interrupted, 30 + 10 min",[18]; 32 mg/kg ip,191
same,"number of beams interrupted, 30 + 15 min",[18]; 32 mg/kg ip,274
same,"number of beams interrupted, 30 + 20 min",[18]; 32 mg/kg ip,372
same,"number of beams interrupted, 30 + 25 min",[18]; 32 mg/kg ip,452
same,"number of beams interrupted, 30 + 30 min",[18]; 32 mg/kg ip,531 ± 84
same,"number of beams interrupted, 30 min",[18]; 32 mg/kg ip,631 ± 49
same,"number of beams interrupted, 30 + 5 min",[18]; 32 mg/kg vo (orally),31
same,"number of beams interrupted, 30 + 10 min",[18]; 32 mg/kg vo (orally),69
same,"number of beams interrupted, 30 + 15 min",[18]; 32 mg/kg vo (orally),100
same,"number of beams interrupted, 30 + 20 min",[18]; 32 mg/kg vo (orally),118
same,"number of beams interrupted, 30 + 25 min",[18]; 32 mg/kg vo (orally),131
same,"number of beams interrupted, 30 + 30 min",[18]; 32 mg/kg vo (orally),164 ± 58
same,"number of beams interrupted, 30 min",[18]; 32 mg/kg vo (orally),433 ± 43
same,"number of beams interrupted, 30 + 5 min",[18]; 64 mg/kg vo (orally),58
same,"number of beams interrupted, 30 + 10 min",[18]; 64 mg/kg vo (orally),124
same,"number of beams interrupted, 30 + 15 min",[18]; 64 mg/kg vo (orally),197
same,"number of beams interrupted, 30 + 20 min",[18]; 64 mg/kg vo (orally),265
same,"number of beams interrupted, 30 + 25 min",[18]; 64 mg/kg vo (orally),325
same,"number of beams interrupted, 30 + 30 min",[18]; 64 mg/kg vo (orally),396 ± 62
same,"number of beams interrupted, 30 min",[18]; 64 mg/kg vo (orally),517 ± 25
same,motor activity,[18]; 16 and 32 mg/kg intraperitoneally,increase in motor activity
same,motor activity,[18]; 32 and 64 mg/kg orally,increase in motor activity
same,holes explored in 5 min,[19]; [24],101 percentage of controls
same,movements made in 5 min,[19]; [24],102 percentage of controls
same,holes explored in 5 min,[19]; [25],121 percentage of controls
same,movements made in 5 min,[19]; [25],116 percentage of controls
same,holes explored in 5 min,[19]; [26],140 percentage of controls
same,movements made in 5 min,[19]; [26],159 percentage of controls
same,holes explored in 5 min,[19]; [27],143 percentage of controls
same,movements made in 5 min,[19]; [27],150 percentage of controls
same,movements,[19]; orally,clear increase in movements
same,holes explored,"[19]; orally, significant from 16 mg/kg upward",large increase in the holes explored
same,minimal effective dose,"[19]; po, orally, read-out: dose from which increase in holes explored is significant",≥ 16 mg/kg
